Common to all, as to experiment: inhibition of tumour cell growth, NCI panel, 48 h
Assay [1] has as its system A549 NSCLC.
Assay [2] concerns HT29 colon.
Assay [3] deals with K-562 leukemia.
The subject of assay [4] is MDA-MB-435.
Assay [5] deals with NCI-H522 lung.
The subject of assay [6] is RPMI-8226 leukemia.
Assay [7] has as its system SN12C renal.
In assay [8] the test system is SNB-19 CNS.
Assay [9] concerns SW-620 colon.
Assay [10] relates to U251 CNS.

Where “and” joins values, the source holds several entries; their conditions need not be identical. Equal values may be shown once.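 How tested: cells in 96-well plates exposed to compound for 48 hours at five concentrations. At the GI50, growth is halved. Definition used: TGI = concentration required for complete inhibition of growth.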

Consider `CN(C)CCCNC(=O)c1cc(NC(=O)c2cc(NC(=O)CCc3c[nH]c4ccccc34)cn2C)cn1C`, for which the GI50 in assay [1], in assay [2], in [3], in assay [4], in assay [5] and in [6] was greater than 100 µM each time. Moreover, the GI50 in assay [7], in assay [8], in assay [9] and in [10] was greater than 100 µM throughout. For the same compound, the TGI in assay [1], in assay [2], in assay [3], in assay [4], in [5] and in assay [6] was greater than 100 µM in each case. Also, the TGI in assay [7], in assay [8], in [9] and in [10] was greater than 100 µM in each case.

`CN[C@H]1C=C[C@@H]2/C=C(C)/C=C/[C@@H](C)[C@H]([C@H](C)[C@H](O)[C@@H](C)NC(C)=O)OC(=O)/C=C/C=C(C)\C=C\[C@]2(C)C1`: the GI50 in assay [1] is 0.0049 µM; in [2], < 0.001 µM and 0.0049 µM; in [3], 0.0202 µM; in assay [4], < 0.001 µM and 0.0049 µM; in [5] it was 0.045 µM and 0.0229 µM; in assay [6], 0.0049 µM. Moreover, the GI50 in [7] is 0.00633 µM; in assay [8], 0.0795 µM and 0.0718 µM; in assay [9], 0.00655 µM; in assay [10], < 0.001 µM and 0.0049 µM. Also, the TGI in assay [1] was greater than 49 µM; in [2], greater than 49 µM; in [3], greater than 49 µM; in assay [4] it was 9.14 µM; in assay [5] it was 13.1 µM; in assay [6], 33.2 µM. The TGI in [7], in assay [8], in assay [9] and in [10] was greater than 49 µM each time.

For `FC(F)c1nc2ccccc2n1-c1nc(N2CCOCC2)nc(N2CCOCC2)n1`, the GI50 in assay [1] is 0.518 µM and 0.584 µM; in [2], 0.238 µM and 0.37 µM; in assay [3] it was 4.09 µM and 5.15 µM; in assay [4] it was 0.397 µM and 0.429 µM; in assay [5], 0.222 µM and 0.295 µM; in assay [6] it was 0.482 µM and 0.345 µM. Moreover, the GI50 in assay [7] was 0.247 µM and 0.332 µM; in assay [8] it was 1.28 µM and 1.74 µM; in [9], 0.573 µM and 1.16 µM; in [10], 0.735 µM and 0.559 µM. For the same compound, the TGI in assay [1] is greater than 100 µM; in [2], greater than 100 µM; in assay [3] it was greater than 100 µM; in [5] it was 2.69 µM; in assay [6], > 7.2 µM and 4.26 µM; in assay [7], greater than 100 µM. Further, the TGI in [8], in assay [9] and in assay [10] was greater than 100 µM in each case.

For the compound `O=C1c2ccccc2-c2c1c1c(=O)[nH]c3ccccc3c1n2Cc1ccccc1`, the GI50 in [1] was greater than 100 µM; in assay [2], greater than 100 µM; in [3], greater than 100 µM; in assay [4] it was greater than 100 µM; in assay [5], 42.7 µM; in [6], greater than 100 µM. Further, the GI50 in [7] is 35.9 µM; in assay [8], 25.1 µM; in assay [9], greater than 100 µM; in assay [10], 16.6 µM. Besides, the TGI in assay [1], in assay [2], in assay [3], in assay [4], in [5] and in assay [6] was greater than 100 µM in each case. Moreover, the TGI was greater than 100 µM in [7], 65.5 µM in assay [8], greater than 100 µM in assay [9] and 34.1 µM in [10].

Turning to `COc1cc(-c2cc3ncccc3c3nc(N)c4cccnc4c23)cc(OC)c1OC`, the GI50 in assay [1] is 0.434 µM; in assay [2] it was 0.0762 µM; in [3], 0.169 µM; in assay [4], 0.0455 µM; in [5], 0.0576 µM; in [6] it was 0.556 µM. For the same compound, the GI50 was 1.01 µM in [7], 0.737 µM in assay [8], 0.468 µM in assay [9] and 0.553 µM in [10]. Further, the TGI in [1] was 12.9 µM; in [2], 15.5 µM; in assay [3], 14.5 µM; in assay [4], 11.2 µM; in assay [5] it was 12 µM; in assay [6], 23.9 µM. Also, the TGI was greater than 100 µM in assay [7], greater than 100 µM in assay [8], greater than 100 µM in assay [9] and 16.9 µM in [10].

`[Cl][Hg][Cl]`: the GI50 in [1] is 20.2 µM; in [2], 16.1 µM; in assay [3] it was 0.302 µM; in assay [4], 15.7 µM; in assay [6] it was 20 µM; in [7], 16.1 µM. The GI50 in assay [8] is 17.9 µM; in assay [9] it was 5.4 µM; in assay [10], 6.25 µM. Also, the TGI was 39.3 µM in assay [1]; 36.3 µM in assay [2]; 4.33 µM in assay [3]; 30.2 µM in assay [4]; greater than 60.3 µM in assay [6]; 29.6 µM in assay [7]. In addition, the values for the TGI in assay [8], in [9] and in assay [10] were 32 µM, 40.2 µM and 19.8 µM, respectively.

In the case of `COc1cc(NC(N)=NCCC(C)(C)Oc2ccc(C(F)(F)F)cc2)ncc1C#N`, the GI50 in assay [1] is 1.73 µM; in assay [2], 1.64 µM; in assay [4], 1.73 µM; in assay [5], 1.47 µM; in [7], 1.85 µM; in [8], 1.84 µM. Also, the figures for the GI50 in assay [9] and in assay [10] were 1.69 µM and 1.79 µM, respectively. Also, the TGI is 3.18 µM in assay [1]; 3.03 µM in [2]; 3.17 µM in [4]; 2.9 µM in assay [5]; 3.35 µM in [7]; 3.3 µM in assay [8]. In addition, the TGI in [9] was determined as 3.46 µM; in assay [10], 3.22 µM.

For the compound `CC(C)CCC(=O)c1ccoc1`, the TGI in assay [1], in [2], in assay [3], in assay [4], in [6] and in [7] was greater than 100 µM in each case. The TGI in [8], in [9] and in [10] was greater than 100 µM throughout.

These data come from PubChem BioAssay (NCI).
